Entries after “also recorded” stand apart in the source; their conditions may differ. Ends that are not written are not given here. Peptide text beside a SMILES is read from it. * marks the point of attachment. X1 = CN(C)c1ccc2c(-c3ccc(C(=O)*)cc3C(=O)[O-])c3ccc(=[N+](C)C)cc-3oc2c1
What was measured:
[1] = test system: activated GαI; assay: Fluorescence polarization binding of TAMRA-labeled peptide to activated Gαi
[2] = target: activated Gαs (Homo sapiens, UniProt P63092); assay: Fluorescence polarization binding of TAMRA-labeled peptide to activated Gαs
activated Gαs, sequence (P63092 whole entry): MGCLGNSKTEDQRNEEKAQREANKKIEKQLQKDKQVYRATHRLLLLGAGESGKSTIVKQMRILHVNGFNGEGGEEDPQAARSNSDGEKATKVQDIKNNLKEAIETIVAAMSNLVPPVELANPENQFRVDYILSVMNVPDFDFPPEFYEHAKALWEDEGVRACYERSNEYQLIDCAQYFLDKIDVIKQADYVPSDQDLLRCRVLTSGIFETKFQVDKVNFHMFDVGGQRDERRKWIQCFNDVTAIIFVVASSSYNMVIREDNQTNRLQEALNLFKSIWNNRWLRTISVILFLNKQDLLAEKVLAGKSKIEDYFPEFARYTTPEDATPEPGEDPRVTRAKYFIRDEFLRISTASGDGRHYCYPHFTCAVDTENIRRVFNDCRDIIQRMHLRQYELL

[3] = target: T1, Gαq activated with aluminum fluoride (Homo sapiens, UniProt P50148); assay: Fluorescence polarization binding of TAMRA-labeled PLC-β3 HTH peptides to Gαq; settings: Gαq-GDP without added aluminum fluoride
T1 sequence (P50148 1-359): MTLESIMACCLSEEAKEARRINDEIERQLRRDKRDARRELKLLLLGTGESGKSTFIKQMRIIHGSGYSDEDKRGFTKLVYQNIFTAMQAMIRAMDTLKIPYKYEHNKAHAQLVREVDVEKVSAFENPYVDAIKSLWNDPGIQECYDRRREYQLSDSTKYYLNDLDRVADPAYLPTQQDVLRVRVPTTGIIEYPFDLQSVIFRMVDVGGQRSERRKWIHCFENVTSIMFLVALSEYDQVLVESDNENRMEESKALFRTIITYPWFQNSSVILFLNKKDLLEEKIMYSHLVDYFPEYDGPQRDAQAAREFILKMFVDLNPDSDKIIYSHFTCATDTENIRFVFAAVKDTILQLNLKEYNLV
Protocol: (§1) FIGS. 6A-C. Quantification of Gαq binding to peptides corresponding to the HTH of PLβ3. […] The structures of PLCβ3 (3 OHM) and p63RhoGEF (2RGN) bound to Gαq were superimposed and a single Gαq is shown. Immediately below is shown the sequence alignment of PLCβ3 (SEQ ID NO:37) and p63RhoGEF (SEQ ID NO:41) encompassing the helix-turn-helix. Underlined residues are labeled in the structure. […] (FIG. 6C) Increasing concentrations of unlabeled PLC-β3 were added to a solution of labeled 25-mer (400 nM) and Gαq (4 μM). KD and IC50 values were derived from three independent experiments.

[4] = target: activated Gαo (Homo sapiens, UniProt P09471); assay: Fluorescence polarization binding of TAMRA-labeled peptide to activated Gαo
activated Gαo, sequence (P09471 whole entry): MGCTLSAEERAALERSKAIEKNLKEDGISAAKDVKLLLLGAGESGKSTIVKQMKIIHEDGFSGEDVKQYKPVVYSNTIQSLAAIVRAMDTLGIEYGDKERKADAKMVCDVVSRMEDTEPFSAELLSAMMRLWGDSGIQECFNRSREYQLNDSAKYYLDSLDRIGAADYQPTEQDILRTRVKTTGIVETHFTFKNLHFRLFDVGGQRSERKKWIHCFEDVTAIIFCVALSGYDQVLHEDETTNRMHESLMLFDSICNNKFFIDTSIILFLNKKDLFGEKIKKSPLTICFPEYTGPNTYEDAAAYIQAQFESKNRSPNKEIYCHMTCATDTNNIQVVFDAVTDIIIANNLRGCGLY

[5] = test system: G-alpha-q mediated activation of PLC-beta; assay: 5HT2A/DOI-stimulated [3H]inositol phosphate accumulation in transiently transfected HEK293 cells; type: cell-based; settings: DOI 1-2 microMolar (FIG. 10)
Protocol: FIG. 10. […] HEK293 cells transfected with 100 ng of 5HT2A and stimulated with 1-2 microMolar of DOI (Synonym: (±)-DOI, (±)-1-(2,5-Dimethoxy-4-iodophenyl)-2-aminopropane hydrochloride, (±)-2,5-Dimethoxy-4-iodoamphetamine hydrochloride) were assayed for [^3H]inositol phosphate accumulation. The control for no DOI stimulation for the CFP-HTH-YFP sample is shown as dashed line (A) and triangle (B). Where indicated HEK293 cells were transfected with varying amounts of PLC constructs.
This experiment is a proof of principle to inhibit G-alpha-q with adeno-associated virus (AAV) to treat uveal melanoma patients. Future experiments will use a retrovirus containing the 27 residue helix-turn-helix in primary uveal melanoma cells to induce apoptosis and inhibit the progression of the uveal melanoma.
The 27mer construct used is between two fluorescent proteins YFP and CFP yielding: YFP-HTH(27mer)-CFP. The 27mer sequence is
A CaaX box was attached to the YFP-HTH(27mer)-CFP to keep this molecule at the membrane. The CaaX box sequence is at the very C-terminal end and are the residues CAIL (SEQ ID NO:36).

[6] = test system: Gαq/i; assay: Fluorescence polarization assay in 384 well plates, competition with TAMRA-27-mer; type: binding; settings: 30 μM, 200 nM TAMRA-27-mer, 1.5 μM Gαq/i
Protocol: FIG. 4. Fluorescence polarization assay in 384 well plates. Each well contains 200 nM TAMRA-27-mer and 1.5 μM Gαq/i. Z′-factor determined using 48 wells+/−aluminum fluoride (AlF4). Unlabeled 27-mer (30 μM) added to an additional 48 wells. Coefficient of variance range between 1 and 4 percent.
To begin to develop a high-throughput format suitable for screening large libraries of compounds, the original fluorescence polarization assay was formatted to use microtiter plates (FIG. 4). The initial reconfiguration to use 384-well plates is highly promising, providing a high dynamic range as defined by the difference in fluorescence polarization of the TAMRA-27-mer in the presence of Gαq-GDP either alone or activated with aluminum fluoride. The high dynamic range combined with low variance produced a Z′-factor of approximately 0.8. An assay with a Z′-factor above 0.5 is generally required for useful high-throughput screening^19; a Z′-factor above 0.8 is generally considered excellent. Moreover, the addition of 30 μM of unlabeled 27-mer competed with the TAMRA-27-mer for binding to Gαq leading to an approximately 50 percent decrease in fluorescence polarization.

[7] = target: T2, Gαq (Homo sapiens, UniProt P50148); assay: Fluorescence polarization competition: unlabeled PLC-β3 against TAMRA-labeled peptide for Gαq; type: binding
T2 sequence (P50148 1-359): T1 sequence (P50148 1-359)
Protocol: FIGS. 3A and 3B. TAMRA-27-mer and PLC-β3 directly compete for Gαq. (FIG. 3A) Increasing concentrations of PLC-β3 were added to a solution of TAMRA-27-mer (400 nM) and Gαq (800 nM). The IC50 value is derived from three independent experiments. (FIG. 3B) Phospholipase activity of PLC-β3 activated by Gαq using lipid vesicles and inhibited by increasing concentrations of TAMRA-27-mer.
as §1
Fluorescence polarization will be used to monitor disruption of complex formation between the 27-mer and active Gαq to identify compounds that directly compete with the complex. It is expected that the majority of these compounds will sit within the canonical effector-binding site of Gαq to prevent the binding of peptide—and by extension, prevent the binding of effectors. However, before using this assay format to identify inhibitors of complex formation it was necessary to insure that peptides corresponding to the HTH of PLC-β3 bound to Gαq. […] These experiments strongly support that peptides corresponding to the HTH of PLC-β3 directly bind to the effector pocket of Gαq and can be used as surrogates of effectors in assays of complex formation with active Gαq.
The most promising peptide consisted of 25 residues (TAMRA-25-mer) spanning the entire HTH and bound to G-alpha-q with appreciable affinity (Kd˜6 microMolar).

What does the source list for `CC[C@H](C)[C@H](NC(=O)[C@H](CC(C)C)NC(=O)[C@H](C)NC(=O)[C@H](CCC(=O)O)NC(=O)[C@H](C)NC(=O)[C@H](Cc1ccc(O)cc1)NC(=O)[C@H](CC(=O)O)NC(=O)[C@H](CCC(N)=O)NC(=O)[C@H](Cc1c[nH]cn1)NC(=O)c1ccc(-c2c3ccc(=[N+](C)C)cc-3oc3cc(N(C)C)ccc23)c(C(=O)[O-])c1)C(=O)N[C@@H](CC(N)=O)C(=O)N1CCC[C@H]1C(=O)N[C@H](C(=O)N[C@@H](CCCCN)C(=O)N[C@@H](Cc1c[nH]cn1)C(=O)N[C@H](C(=O)N[C@@H](CO)C(=O)N[C@@H](CC(C)C)C(=O)N[C@@H](CCSC)C(=O)N[C@@H](CC(=O)O)C(=O)N[C@@H](CCC(N)=O)C(=O)N[C@@H](CCCNC(=N)N)C(=O)N[C@@H](C)C(=O)N[C@@H](CCCNC(=N)N)C(=O)N[C@@H](CCC(N)=O)C(=O)N[C@@H](CC(C)C)C(=O)O)C(C)C)[C@@H](C)CC` [TAMRA-25-mer] (X1-HQDYAEALINPIKHVSLMDQRARQL-OH; C-terminus assumed)?
binding to activated Gαi [1]: failed to bind; also recorded: neither activated Gαs, GαI, nor Gαo bound the peptide; binding to activated Gαs [2]: failed to bind; also recorded: neither activated Gαs, GαI, nor Gαo bound the peptide; complex formation with inactive Gαq-GDP / dependence on aluminum fluoride activation [3]: dependent on the activation of G-alpha-q with aluminum fluoride; also recorded: dependent on the activation of Gαq with aluminum fluoride; binding to activated Gαo [4]: failed to bind; also recorded: neither activated Gαs, GαI, nor Gαo bound the peptide

What does the source list for “CFP-27mer(I860A)-YFP: 27mer HQDYAEALANPIKHVSLMDQRARQLAA between fluorescent proteins YFP and CFP, C-terminal CaaX box CAIL, expressed by transient transfection (HQDYAEALANPIKHVSLMDQRARQLAACAIL; also: fused between fluorescent proteins YFP and CFP)”?
inhibition of G-alpha-q signaling after transient transfection [5]: inhibits G-alpha-q mediated activation of PLC-beta; inhibition of G-alpha-q signaling after transient transfection ([5]; listed as 27 residue helix-turn-helix peptide): inhibited G-alpha-q signaling

“HQDYAEALANPIKHVSL-Nle-DQRARQLAA [unlabeled 27-mer]” was tested. Which “decrease in fluorescence polarization” value [6] did it give?
Its value is “approximately 50%”.

B1: PLC-β3(L859E): mutant full-length PLC-β3 with single substitution L859E in its HTH that does not bind Gαq (protein)
chain: AGAQPGVHALQLEPPTVVETLRRGSKFIKWDEETSSRNLVTLRVDPNGFFLYWTGPNMEVDTLDISSIRDTRTGRYARLPKDPKIREVLGFGGPDARLEEKLMTVVSGPDPVNTVFLNFMAVQDDTAKVWSEELFKLAMNILAQNASRNTFLRKAYTKLKLQVNQDGRIPVKNILKMFSADKKRVETALESCGLKFNRSESIRPDEFSLEIFERFLNKLCLRPDIDKILLEIGAKGKPYLTLEQLMDFINQKQRDPRLNEVLYPPLRPSQARLLIEKYEPNQQFLERDQMSMEGFSRYLGGEENGILPLEALDLSTDMTQPLSAYFINSSHNTYLTAGQLAGTSSVEMYRQALLWGCRCVELDVWKGRPPEEEPFITHGFTMTTEVPLRDVLEAIAETAFKTSPYPVILSFENHVDSAKQQAKMAEYCRSIFGDALLIEPLDKYPLAPGVPLPSPQDLMGRILVKNKKRHRPSAGGPDSAGRKRPLEQSNSALSESSAATEPSSPQLGSPSSDSCPGLSNGEEVGLEKPSLEPQKSLGDEGLNRGPYVLGPADREDEEEDEEEEEQTDPKKPTTDEGTASSEVNATEEMSTLVNYIEPVKFKSFEAARKRNKCFEMSSFVETKAMEQLTKSPMEFVEYNKQQLSRIYPKGTRVDSSNYMPQLFWNVGCQLVALNFQTLDVAMQLNAGVFEYNGRSGYLLKPEFMRRPDKSFDPFTEVIVDGIVANALRVKVISGQFLSDRKVGIYVEVDMFGLPVDTRRKYRTRTSQGNSFNPVWDEEPFDFPKVVLPTLASLRIAAFEEGGKFVGHRILPVSAIRSGYHYVCLRNEANQPLCLPALLIYTEASDYIPDDHQDYAEAEINPIKHVSLMDQRARQLAALIGESEAQAGQETCQDTQSQQLGSQPSSNPTPSPLDASPRRPPGPTTSPASTSLSSPGQRDDLIASILSEVAPTPLDELRGHKALVKLRSRQERDLRELRKKHQRKAVTLTRRLLDGLAQAQAEGRCRLRPGALGGAADVEDTKEGEDEAKRYQEFQNRQVQSLLELREAQVDAEAQRRLEHLRQALQRLREVVLDANTTQFKRLKEMNEREKKELQKILDRKRHNSISEAKMRDKHKKEAELTEINRRHITESVNSIRRLEEAQKQRHDRLVAGQQQVLQQLAEEEPKLLAQLAQECQEQRARLPQEIRRSLLGEMPEGLGDGPLVACASNGHAPGSSGHLSGADSESQEENTQL
What does the source list for B1?
competition with the 27-mer for binding to Gαq ([7]; TAMRA-27-mer 400 nM, Gαq 800 nM): could not compete; effect on TAMRA-25-mer binding to Gαq ([7]; at concentrations as high as 35 μM): no effect

Reference: patent US9540620B2, “Methods and compositions for modulating G-alpha-Q signaling” (The University of North Carolina at Chapel Hill, priority 2012, dated 2017)
